Laboratory results as given in US20220079960A1, “USE OF P1P DERIVATIVES AS THERAPEUTIC AGENT FOR SEPSIS” (AXCESO BIOPHARMACO.,LTD., priority 2019, published 2022).
Read-outs that look alike come from different tables or passages of the source.

Tests used:
SIRT1 = assay: Expression of SIRT1 in macrophages, RT-PCR; type: cell-based; details: Raw 264.7 macrophages; 0.01-1 μM; RT-PCR 24 hours later (FIG. 8)
Procedure: The macrophage cell line used in the experiment was Raw 264.7 cell line purchased from ATCC, and Dulbeco's Modified Eagle's Media high glucose (with 10% FBS, 0.5% P/S) was used as a medium for culturing macrophages. Macrophages were cultured in an incubator at 37° C., 5% CO2. Macrophages were treated with P1P or cP1P drug at concentrations of 0.01 μM, 0.1 μM, and 1 μM, respectively and then LPS of 100 ng/ml after 4 hours, and cultured for 24 hours. The change in SIRT1 protein was measured by RT-PCR.
Expression of SIRT1 protein is very important in the treatment of sepsis. When sepsis is induced, the synthesis and activity of SIRT1 protein is reduced. Macrophages were treated with P1P drugs during culture, and the expression level of SIRT1 protein was confirmed by RT-PCR 24 hours later.

[1] = test system: Human umbilical vein endothelial cell (HUVEC); assay: Survival of human vascular endothelial cells under oxidative stress (H2O2), MTT assay; type: cell-based; details: for cell viability compared with S1P: 500 μM hydrogen peroxide (FIG. 7)
Procedure: Human umbilical vein endothelial cell (HUVEC) used in the experiment was purchased from Promocell, and cultured in an incubator at 37° C., 5% CO2 using Endothelial Cell Growth Medium 2 as a culture medium. To confirm the efficacy of P1P drug in an oxidative stress environment, HUVEC cells were pretreated with P1P or cP1P at concentrations of 10 nM, 100 nM, and 1000 nM for 1 hour, and then exposed to oxidative stress by treatment with 500 μM hydrogen peroxide (H2O2) for 6 hours. The efficacy of the […] drug on the survival of HUVEC cells after 6 hours of exposure to oxidative stress was confirmed by MTT assay. As a comparison group, S1P was used at the same concentration and conditions.
In addition to causing inflammation, LPS promotes oxidative stress to promote vascular endothelial cell death. To analyze the effect of the present drugs, oxidative stress was induced in vascular endothelial cells by treatment with 500 μM of hydrogen peroxide.

TNF-α = assay: Inflammatory cytokine (TNF-α) secretion after LPS treatment in macrophages, ELISA; type: cell-based; details: Mus musculus
Procedure: The macrophage cell line used in the experiment was Raw 264.7 cell line purchased from ATCC, and Dulbeco's Modified Eagle's Media high glucose (with 10% FBS, 0.5% P/S) was used as a medium for culturing macrophages. Macrophages were cultured at 37° C., 5% CO2 incubator. Macrophages were treated with P1P or cP1P drugs at concentrations of 0.02 μM, 0.1 uM, 0.5 μM and 1 μM, respectively and then LPS of 1 ng/ml after 6 hours, and cultured for 4 hours. And then changes of inflammatory cytokines (Tumor necrosis factor alpha, TNF-α) were measured by the manufacturer's method using ELISA (BD OPTEIAT™). As a comparison group, S1P was used at the same concentration and conditions.
To this end, macrophage cell lines were treated with LPS to increase inflammatory cytokines, and the efficacy of P1P and derivatives thereof on inflammatory cytokine secretion was evaluated. Macrophage cell lines were treated with P1P drug or cP1P drug, and 6 hours later, treated with LPS at a concentration of 500 ng/mL for 4 hours.

Balb/c mice = assay: LPS sepsis mouse model: effect of drugs on survival rate; type: in vivo; details: for Survival rate (%): drug 40 μg/mouse i.p. 5 minutes after LPS
Procedure: For the experiment of the survival rate of mice after LPS administration, 7-week-old Balb/c mice were purchased from Orient Bio and adapted to the laboratory. Then, LPS (Sigma) was dissolved in phosphate buffer solution (PBS) at a concentration of 400 μg/mouse, 200 μg/mouse, 170 μg/mouse, 150 μg/mouse, 125 μg/mouse, and 100 μg/mouse, and 100 uL of each was injected into the abdominal cavity of a mouse.
(§1) To this end, the LPS concentration was determined to be 150 μg/mouse, and the P1P drug was intraperitoneally injected at a concentration of 40 μg/mouse 5 and 60 minutes after intraperitoneal injection of LPS. The survival rate was measured by observation for 72 hours at 12 hour intervals. In another experiment, P1P drug was injected intraperitoneally at a concentration of 40 μg/mouse 1 hour after intraperitoneal injection of LPS of 125 μg/mouse to compare the survival rate of mice. In the same way, the survival rate was measured while changing the P1P concentration.
as §1, with “cP1P” for “P1P”, “mice.” for “mice. In the same way, the survival rate was measured while changing the P1P concentration.”
Soybean lecithin called Lipoid S-75 was used to prepare the liposome, and 20 mg of lecithin was dissolved in 1 mL of chloroform. P1P or cP1P was dissolved in 1 mL of chloroform/methanol (2:1, v/v) solvent in an amount of 2 mg, 1 mg or 0.5 mg, respectively, and mixed with the lecithin solution. A thin lipid film was made by removing the organic solvent from the mixed solution using nitrogen gas or a rotary evaporator. The thin lipid film was stored in a vacuum desiccator overnight to completely remove the organic solvent remaining on the film. 5 mL of a phosphate buffer solution was added to the thin lipid film and stirred for 30 minutes to prepare multilamellar vesicles (MLV, large liposomes). The prepared MLV particles were sonicated for 2 minutes in an ice bath to make small unilamellar vesicles (SUV) of 100 nm or less. This sonication process was repeated twice. Only the supernatant obtained by centrifugation of the prepared SUV at 12000 rpm for 5 minutes was used in the experiment. Liposomes containing P1P or cP1P drug (P1P-liposomes/cP1P-liposomes) were used in an experiment to increase the survival rate of mice using LPS. To this end, LPS of 170 μg/mouse, which is higher than the conventional LPS concentration (125-150 μg/mouse), was injected into the abdominal cavity of the mouse. P1P or cP1P drug was administered at 40 μg/mouse 5 minute after LPS administration, and 100 μl of P1P-liposomes and cP1P-liposomes (P1P and cP1P of about 40 μg/mouse) were injected into the abdominal cavity of the mouse, and the survival rate change was determined over time.
The effect of P1P to treat sepsis was tested under the same conditions as described in the experimental method. P1P of 40 μg/mouse was administered intraperitoneally and intravenously 5 minutes after intraperitoneal injection of LPS of 150 μg/mouse. […] When the P1P drug was administered 1 hour after LPS administration, the survival rate was about 40% for intraperitoneal injection and 20% for intravenous injection (FIG. 2b). These indicate that P1P effectively ameliorated sepsis induced after LPS treatment. Furthermore, P1P of 40 μg/mouse was administered by intraperitoneal injection 1 hour after intraperitoneal injection of 125 μg/mouse of LPS. […] In the case of 20 μg/mouse concentration, the survival rate was 80%, and in the case of 10 μg/mouse concentration, the survival rate was about 60% (FIG. 3b). It was confirmed that P1P increased the survival rate in a concentration-dependent manner. […]

Solubility in water = type: physicochemical
[2] = test system: Human umbilical vein endothelial cell (HUVEC); assay: Proliferation of human vascular endothelial cells, MTT assay; type: cell-based; details: 10 nM, 100 nM and 1000 nM, 48 hours, compared with S1P (FIG. 6)
Procedure: Human umbilical vein endothelial cell (HUVEC) used in the experiment was purchased from Promocell, and cultured in an incubator at 37° C., 5% CO2 using Endothelial Cell Growth Medium 2 as a culture medium. To confirm the proliferation effect of P1P drug, HUVEC cells were treated with P1P or cP1P drug at concentrations of 10 nM, 100 nM and 1000 nM, respectively, and cultured for 48 hours. The cell proliferation rate was measured according to the manufacturer's method using MTT assay (Molecular Probes). As a comparison group, S1P was used at the same concentration and conditions.

[3] = S1P administered directly; cited from earlier work
[4] = RAW264.7, read-out: inhibitory efficacy on inflammatory cytokine (TNF-α) production
[5] = LPS 125 μg/mouse i.p., drug 40 μg/mouse i.p. 1 hour after LPS (FIG. 3a, FIG. 4b)
[6] = LPS 150 μg/mouse i.p., drug 40 μg/mouse intraperitoneally 5 minutes after LPS (FIG. 2a, FIG. 4a)

Compound | expression level of SIRT1 protein (SIRT1) | cell viability compared with S1P [1] | inhibition at 1 µM (TNF-α; [4]) | survival rate (Balb/c mice; [5]) | Survival rate (%) (Balb/c mice; LPS 150 μg/mouse i.p., 0 h) | Survival rate (%) (Balb/c mice; LPS 150 μg/mouse i.p., 12 h) | Survival rate (%) (Balb/c mice; LPS 150 μg/mouse i.p., 24 h) | Survival rate (%) (Balb/c mice; LPS 150 μg/mouse i.p., 48 h) | Survival rate (%) (Balb/c mice; LPS 150 μg/mouse i.p., 72 h) | survival rate (Balb/c mice; [6]) | Survival rate (%) (Balb/c mice; LPS 170 μg/mouse i.p., 0 h) | Survival rate (%) (Balb/c mice; LPS 170 μg/mouse i.p., 12 h) | Survival rate (%) (Balb/c mice; LPS 170 μg/mouse i.p., 24 h) | Survival rate (%) (Balb/c mice; LPS 170 μg/mouse i.p., 36 h) | Survival rate (%) (Balb/c mice; LPS 170 μg/mouse i.p., 48 h) | Survival rate (%) (Balb/c mice; LPS 170 μg/mouse i.p., 72 h) | solubility in water (Solubility in water) | efficacy on proliferation of vascular endothelial cells [2] | Survival rate (%) (Balb/c mice; LPS 150 μg/mouse i.p., 36 h) | further results
CCCCCCCCCCCCCC[C@@H](O)[C@H](O)[C@H](N)COP(=O)(O)O (stereo in doubt) [P1P, Phytosphingosine-1-phosphate] | increased SIRT1 protein even at very low concentrations | higher cell viability than S1P | 49% | 100% | 100% | 100% | 100% | 80% | 80% | ≥ 80% | 100% | 80% | 40% | 20% | 20% | 20% | poorly soluble in water | higher than that of S1P | – | cell viability ([1]; 500 μM hydrogen peroxide, untreated control about 40%): ≥ 70%; survival rate (Balb/c mice; LPS 125 μg/mouse, drug 10 μg/mouse 60 minutes after LPS (FIG. 3b)): about 60%; survival rate (Balb/c mice; LPS 125 μg/mouse, drug 20 μg/mouse 60 minutes after LPS (FIG. 3b)): 80%; survival of mice while varying drug concentration (Balb/c mice; LPS 125 μg/mouse, drug 40 μg/mouse 60 minutes after LPS, up to 72 hours (FIG. 3b)): all of them survived up to 72 hours; survival rate (Balb/c mice; LPS 150 μg/mouse i.p., drug 40 μg/mouse intravenously 5 minutes after LPS (FIG. 2a)): ≥ 80%; survival rate (Balb/c mice; LPS 150 μg/mouse i.p., drug by intraperitoneal injection 1 hour after LPS (FIG. 2b)): about 40%; survival rate (Balb/c mice; LPS 150 μg/mouse i.p., drug by intravenous injection 1 hour after LPS (FIG. 2b)): 20%
CCCCCCCCc1ccc(CCC(N)(CO)CO)cc1 [FTY720, fingolimod, reference compound] | – | – | – | – | 100% | 100% | 40% | 20% | 20% | – | – | – | – | – | – | – | – | – | 20% | –
CCCCCCCCCCCCC/C=C/[C@@H](O)[C@@H](N)COP(=O)(O)O [S1P, sphingosine-1-phosphate, reference compound] | – | – | – | – | 100% | 100% | – | 40% | 40% | – | – | – | – | – | – | – | – | – | 40% | inhibition at 1 µM (TNF-α; RAW264.7, 1 μM, Raw 264.7 macrophages, drug 6 hours before LPS, LPS 4 hours, ELISA, read-out: inhibitory efficacy on inflammatory cytokine (TNF-α) production): 19%; degradation rate in the blood [3]: high degradation rate in the blood
CCCCCCCCCCCCCC[C@@H](O)[C@H]1OP(=O)(O)OC[C@@H]1N [cP1P, O-cyclic P1P] | increased SIRT1 protein even at very low concentrations | higher cell viability than S1P | 35% | about 100% | – | – | – | – | – | ≥ 70% | 100% | 80% | 60% | 40% | 40% | 40% | poorly soluble in water | higher than that of S1P | – | –
